Results: patent US4782081A, “Compounds and methods useful for the synthesis of thromboxane A2” (priority 1986, dated 1988)
Values joined by “and” are separate entries in the source; they are usually repeats but may differ in a detail not shown here. Equal values may be shown once. “Also recorded” adds a separate entry of the source. Where a name gives a salt, the structure may show the parent alone.

How the values were obtained:
[1] = biological activity (biological properties of TXA2) in a variety of assays
Protocol: (§1) TXA2 S was also prepared by saponifiction of H2 (X=H) with Me3 SiOK (10) in tetrahydrofuran and isolated as an amorphous solid by solvent evaporation.

[2] = system: rabbit mesenteric arteries; conditions: ref (19); cited from earlier work
rabbit celiac arteries [3] = conditions: ref (19); cited from earlier work
platelets = assay: inhibition of TXA2 S induced platelet aggregation; type: cell-based, human
[4] = half-life in Krebs solution at 37° C. (bioassay on vascular tissue); type: physicochemical; conditions: leading to TXB2
Protocol: Radioimmunoassay determinations of hydrolyzed TXA2 yielded values of 84±21, 60±16, 39±11, and 25±8 picograms TXB2 (mean±S.D at 95% confidence, n=3) which correspond with predicted values of 125, 62, 31, and 15 picograms, respectively. The half-life of TXA2 S at 37° C. in Krebs solution measured by bioassay on vascular tissue was 30 seconds which compares very closely with previously reported half-lives for biologically generated material. (1, 12)

[5] = system: thromboxane synthetase or cyclooxygenase
human neutrophils = assay: aggregation of human neutrophils; type: cell-based
[6] = system: vascular tissue (rabbit aorta, pulmonary, mesenteric, celiac arteries and bovine coronary arteries); assay: contraction of Krebs superfused vascular tissue; type: cell-based; conditions: for constriction of vascular tissue versus natural TXA2 / contraction of vascular tissue: rabbit aorta, pulmonary; for constriction of vascular tissue versus natural TXA2: mesenteric and celiac arteries; for contraction of vascular tissue: mesenteric, celiac arteries and bovine coronary arteries
Protocol: (§2) On most tissues 2-3 ng of TXA2 S was the threshold dose for contraction, generating more than 2 g of tension with rabbit aorta and 4 g of tension with bovine coronary arteries.

[7] = system: human platelet rich plasma (PRP); assay: aggregation of human platelet rich plasma (PRP); type: cell-based
Description: (§3) TXA2 S at concentrations of 16-100 nanograms/ml caused a concentration-dependent aggregation of human platelet rich plasma (PRP). Irreversible aggregation occurred with 50-100 nanograms TXA2 S/ml for all cases examined. […] These comparative potencies concur with published data. […] The aggregatory effects of TXA2 S were confined to platelets.

[8] = chemical stability and storage stability; type: physicochemical
Protocol: The salts of TXA2 were stable for more than one week when stored at -20 C. either as isolated solids or in basic methanol or tetrahydrofuran solution.
To a vile containing 1 mg (0.003 mmol) H1 in 0.050 ml (d4 -)methanol was immediately added 0.0025 ml of a 0.12M solution of NaOH(D) in (D)H2 O under nitrogen. […] Such solutions were diluted and used for biological testing and could be stored for at least a week at -20° C. without significant loss in biological activity.
as §1

[9] = indirect methods; refs (14), (15); listed as biologically generated material; cited from earlier work
[10] = system: rabbit mesenteric arteries; assay: response of rabbit mesenteric arteries; type: cell-based
Protocol: as §2

[11] = 37° C., pH 7.4; refs (1,3); cited from earlier work
rabbit celiac arteries [12] = assay: response of rabbit celiac arteries; type: cell-based
Protocol: as §2

[13] = system: vascular tissue (rabbit aorta, pulmonary, mesenteric, celiac arteries and bovine coronary arteries); conditions: generated by platelets or a partially purified platelet enzyme; cited from earlier work
bovine coronary arteries = assay: contraction of Krebs superfused bovine coronary arteries; type: cell-based; conditions: threshold dose 2-3 ng
Protocol: as §2

in vitro = in vitro ADME; conditions: human, plasma
Description: as §3

leukotriene B4 = assay: stimulation of leukotriene B4 formation; type: cell-based, human; conditions: 2 ug/ml
rabbit aorta = assay: contraction of Krebs superfused rabbit aorta; type: cell-based; conditions: threshold dose 2-3 ng
Protocol: as §2

CCCCCC1C=CC2OC3CC(O3)C2CC=CCCCC(=O)O1 (stereo not drawn) [Compound H2, 1,15-Anhydro Thromboxane A2]
biological activity [1]: did not show the biological properties of TXA2; also recorded: biologically inactive

CCCCC[C@H](O)/C=C/[C@@H]1[C@@H](C/C=C\CCCC(=O)O)[C@@H]2C[C@H]1OO2 [PGH2]
response of rabbit mesenteric arteries to PGH2 [2]: small, short-lived contraction, followed by larger, longer lasting relaxation
response of rabbit celiac arteries to PGH2 (rabbit celiac arteries [3]): small, short-lived contraction, followed by larger, longer lasting relaxation

CCCCCCC=CC1C2CC(NO2)C1CC=CCCCC(=O)O (stereo not drawn) [Compound U-54701, 9,11-iminoepoxy-prosta-5,13-dienoic acid]
platelet aggregation induced by TXA2 S (platelets; inhibitor at 5-15 ug/ml): no effect

CCCCCC(O)C=CC1OC2CC(O2)C1CC=CCCCC(=O)O (stereo not drawn) [potassium salt of A, Thromboxane A2 Potassium]
half-life in Krebs medium/solution [4]: 30 s
resistance to inhibition by selective thromboxane synthetase or cyclooxygenase inhibitors versus natural TXA2 [5]: indistinguishable from natural TXA2
aggregation of neutrophils (human neutrophils): not neutrophils
constriction of vascular tissue versus natural TXA2 [6]: indistinguishable from natural TXA2
comparative potency in aggregating human platelets versus natural TXA2 [7]: indistinguishable from natural TXA2

CCCCC[C@H](O)/C=C/[C@H]1O[C@H]2C[C@H](O2)[C@@H]1C/C=C\CCCC(=O)O [A, Thromboxane A2]
biological assays versus platelet-derived TXA2 [1]: indistinguishable from platelet-derived TXA2

CCCCCC(O)C=CC1OC2CC(O2)C1CC=CCCCC(=O)O (stereo not drawn) [free acid]
stability of free acid in aprotic solvents ([8]; deuterochloroform, elimination to the enol ether): underwent elimination to the corresponding enol ether over the course of several hours

CCCCC[C@H](O)/C=C/[C@H]1O[C@H]2C[C@H](O2)[C@@H]1C/C=C\CCCC(=O)O [TXA2, thromboxane A2]
half-life in plasma, biologically generated material [9]: 3 minutes and 5-6 minutes
response of rabbit mesenteric arteries [10]: only constriction
T1/2 in aqueous Krebs medium [11]: 32 s
response of rabbit celiac arteries (rabbit celiac arteries [12]): only constriction
vascular contracting activity [13]: potent vaxcular contracting activity
hydrolysis to TXB2 ([8]; aqueous high salt, neutral pH buffers): rapidly hydrolyzed to TXB2
stability at high pH ([8]; high pH): appreciably enhanced at high pH
contraction of vascular tissue [6]: contracted all vascular tissue tested

CCCCCCC=CC1C2CC(N=N2)C1CC=CCCCC(=O)O (stereo not drawn) [Compound U-51605, 9,11-diazo-prosta-5,13-dienoic acid]
TXA2-induced aggregation (platelets; inhibitor at 1-3 ug/ml): inhibited TXA2 -induced aggregation in a concentration-dependent manner

CCCCCC(O)C=CC1OC2CC(O2)C1CC=CCCCC(=O)O (stereo not drawn) [sodium salt of A, Thromboxane A2 Sodium]
biological activity [1]: marked activity
half-life in Krebs medium/solution [4]: 30 s
resistance to inhibition by selective thromboxane synthetase or cyclooxygenase inhibitors versus natural TXA2 [5]: indistinguishable from natural TXA2
aggregation of neutrophils (human neutrophils): not neutrophils
storage without significant loss in biological activity ([8]; -20° C., methanol/water saponification solution): at least a week
constriction of vascular tissue versus natural TXA2 [6]: indistinguishable from natural TXA2
comparative potency in aggregating human platelets versus natural TXA2 [7]: indistinguishable from natural TXA2

CCCCC[C@H](O)/C=C/[C@H]1O[C@H]2C[C@H](O2)[C@@H]1C/C=C\CCCC(=O)O [TXA2 S, Thromboxane A2]
response of rabbit mesenteric arteries [10]: only constriction
tension generated, bovine coronary arteries (bovine coronary arteries): > 4 g
biological activity [1]: did exhibit biological properties
biological activity after hydrolysis ([1]; 0.1M phosphate buffer, pH 7.4): eliminated its biological activity
response of rabbit celiac arteries (rabbit celiac arteries [12]): only constriction
half-life ([4]; krebs medium): 30 s
aggregation of human neutrophils (human neutrophils; 2 ug/ml): did not aggregate human neutrophils
half-life (in vitro): 234 s
stimulation of formation of leukotriene B4 (leukotriene B4): nor did it stimulate formation of leukotriene B4
tension generated, rabbit aorta (rabbit aorta): more than 2 g
storage without significant loss in activity ([8]; -20° C., basic saponification solutions): up to a week
stability in basic saponification solutions ([8]; basic saponification solutions): relatively stable
stability in neutral or acidic solutions ([8]; neutral or acidic solutions): rapid decomposition
potency versus biologically produced TXA2 ([6]; TXA2 calculated from PGH2 originally in the incubation, assuming 100% conversion): compared well with the activity of biologically produced TXA2
contraction of vascular tissue [6]: contracted all vascular tissue tested
concentration causing concentration-dependent aggregation of human PRP [7]: 16-100 nanograms/ml
potency relative to PGH2 at inducing aggregation of human PRP [7]: approximately 10 times
concentration causing irreversible aggregation ([7]; all cases examined): 50-100 nanograms/ml
